Data reported in publication PMC4640066 (Nature Communications, 2015).

Experiments:
[1] = biological target: T1, γ-TuSC (Saccharomyces cerevisiae, UniProt P53378); test: γ-TuSC-stimulated MT polymerization in vitro; format: biochemical; details: same concentration as ineffective on glutamate, paclitaxel and Tau-induced MT formation
T1 construct: made in house; host or cells: HighFive insect cells
T1 sequence (P53378 1-473): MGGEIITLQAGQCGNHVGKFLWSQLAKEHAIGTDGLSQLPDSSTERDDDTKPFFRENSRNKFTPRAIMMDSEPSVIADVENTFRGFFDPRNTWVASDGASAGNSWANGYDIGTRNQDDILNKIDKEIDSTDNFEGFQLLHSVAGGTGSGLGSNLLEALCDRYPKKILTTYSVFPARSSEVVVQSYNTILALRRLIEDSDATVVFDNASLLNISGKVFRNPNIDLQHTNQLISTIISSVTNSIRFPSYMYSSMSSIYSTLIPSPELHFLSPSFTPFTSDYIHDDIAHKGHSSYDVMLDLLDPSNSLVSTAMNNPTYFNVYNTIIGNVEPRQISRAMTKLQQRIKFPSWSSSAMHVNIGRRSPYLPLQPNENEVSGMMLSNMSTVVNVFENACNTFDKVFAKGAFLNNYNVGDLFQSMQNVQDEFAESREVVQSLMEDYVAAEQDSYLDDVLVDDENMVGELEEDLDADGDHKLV
T1 sequence (P38863 1-823 partner): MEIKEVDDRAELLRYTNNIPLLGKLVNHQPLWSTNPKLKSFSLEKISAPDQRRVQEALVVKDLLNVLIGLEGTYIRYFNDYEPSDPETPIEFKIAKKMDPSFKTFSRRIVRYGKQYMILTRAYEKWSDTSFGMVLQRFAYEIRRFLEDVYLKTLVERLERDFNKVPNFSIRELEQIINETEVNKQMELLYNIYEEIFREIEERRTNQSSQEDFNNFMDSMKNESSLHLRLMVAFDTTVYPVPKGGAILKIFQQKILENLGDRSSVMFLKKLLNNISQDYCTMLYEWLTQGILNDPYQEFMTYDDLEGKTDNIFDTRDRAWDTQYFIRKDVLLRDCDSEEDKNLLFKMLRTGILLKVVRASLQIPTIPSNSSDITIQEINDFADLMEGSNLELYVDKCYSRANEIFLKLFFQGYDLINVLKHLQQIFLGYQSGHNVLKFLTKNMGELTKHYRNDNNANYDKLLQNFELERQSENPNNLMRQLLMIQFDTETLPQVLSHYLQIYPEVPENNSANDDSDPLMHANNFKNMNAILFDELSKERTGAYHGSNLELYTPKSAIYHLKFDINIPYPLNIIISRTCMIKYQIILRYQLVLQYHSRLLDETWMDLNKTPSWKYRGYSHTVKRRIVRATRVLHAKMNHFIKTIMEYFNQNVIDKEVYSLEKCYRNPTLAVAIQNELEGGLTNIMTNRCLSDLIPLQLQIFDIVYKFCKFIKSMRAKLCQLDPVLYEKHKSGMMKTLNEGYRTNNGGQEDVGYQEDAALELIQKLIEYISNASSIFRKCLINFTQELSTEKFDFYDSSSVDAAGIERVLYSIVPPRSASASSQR
T1 sequence (P53540 1-846 partner): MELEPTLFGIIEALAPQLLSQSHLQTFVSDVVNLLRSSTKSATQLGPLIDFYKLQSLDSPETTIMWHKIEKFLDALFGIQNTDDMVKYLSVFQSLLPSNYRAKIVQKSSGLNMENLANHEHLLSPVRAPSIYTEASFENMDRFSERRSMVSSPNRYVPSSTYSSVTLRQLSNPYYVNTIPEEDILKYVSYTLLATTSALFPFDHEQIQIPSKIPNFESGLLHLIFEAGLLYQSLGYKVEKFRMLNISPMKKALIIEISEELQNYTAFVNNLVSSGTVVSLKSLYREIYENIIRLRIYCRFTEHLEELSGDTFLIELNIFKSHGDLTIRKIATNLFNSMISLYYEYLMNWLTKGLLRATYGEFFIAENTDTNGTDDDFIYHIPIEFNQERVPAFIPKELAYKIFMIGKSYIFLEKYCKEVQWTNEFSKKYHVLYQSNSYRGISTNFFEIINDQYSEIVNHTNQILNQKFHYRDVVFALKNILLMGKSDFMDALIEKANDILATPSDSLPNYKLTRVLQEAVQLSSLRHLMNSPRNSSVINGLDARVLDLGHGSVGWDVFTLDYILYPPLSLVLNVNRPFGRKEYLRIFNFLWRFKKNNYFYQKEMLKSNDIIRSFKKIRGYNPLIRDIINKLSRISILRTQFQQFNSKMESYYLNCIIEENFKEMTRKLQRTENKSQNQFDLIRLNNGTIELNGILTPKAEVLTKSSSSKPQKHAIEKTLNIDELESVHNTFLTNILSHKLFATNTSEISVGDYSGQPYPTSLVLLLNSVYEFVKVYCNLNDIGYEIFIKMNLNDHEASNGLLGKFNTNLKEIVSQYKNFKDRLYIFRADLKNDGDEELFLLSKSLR
Protocol: For glutamate-stimulated MT polymerization, 1 mg ml^−1 porcine brain α/β-tubulin was mixed with glutamate (final concentration 1 M) and GTP (final concentration 1 mM) in RB buffer on ice. For paclitaxel-stimulated MT polymerization, 1 mg ml^−1 porcine brain α/β-tubulin was mixed with paclitaxel (final concentration 10 μM) and GTP (final concentration 1 mM) in RB buffer on ice. For recombinant Tau protein-stimulated MT polymerization, 1 mg ml^−1 α/β-tubulin purified from porcine brain and Tau protein were mixed with GTP (final concentration 1 mM) in RB buffer on ice. For γ-TuSC-stimulated MT polymerization, γ-TuSC was mixed with GTP (final concentration 1 mM). One of the compounds and α/β-tubulin were then added. Samples were transferred into cuvettes. Tubulin polymerization was monitored using the absorbance at 350 nm at 37 °C using a thermostatic spectrophotometer (Beckman Coulter).

[2] = system: γ-tubulin-dependent, RanQ69L-stimulated aster formation; test: RanQ69L-stimulated aster formation in M-phase Xenopus egg extracts; format: biochemical
Protocol: Cytostatic factor (CSF)-arrested M phase Xenopus egg extracts (CSF extracts) were prepared. Briefly, unfertilized eggs were crushed by 10,700g centrifugation for 20 min. M phase extracts were mixed with 0.5 μM Cy3-labelled α/β-tubulin and various concentrations of compounds. After incubation for 30 min on ice, 15 μM RanQ69L, 200 sperm nuclei per μl or 5% DMSO were added and incubated for 30 min on ice. After incubation for 20 min at 20 °C (for the samples with sperm nuclei, the incubation time was 30 min), 1.5 μl sample was fixed with 1.5 μl fix solution (0.3 volume of 37% formaldehyde, 0.6 volume of 80% glycerol and 0.1 vol of 10 × MMR solution (50 mM HEPES, pH 7.8, 1 M NaCl, 20 mM KCl, 10 mM MgCl2, 20 mM CaCl2 and 1 mM EDTA)), followed by the squash fix.
Images were acquired using a microscope (Axiovert 200 M; Carl Zeiss Inc.) equipped with a plan-Apochromat × 63 NA 1.3 oil objective lens (Carl Zeiss Inc.), a Cy3 emission filter and a Cascade:1 K (Photometrics Inc.) camera, and the AxioVision software (Carl Zeiss Inc.). The aster size and fluorescence intensity were quantified using a macro written in MATLAB[41].

`COc1cc2c(=O)c(-c3cc(OC)c4c(c3OC)OCO4)coc2cc1OCc1ccccc1` [Gatastatin, O^7-demethylbenzyl AG1] was tested, and the “Effect on γ-TuSC-stimulated MT polymerization” value [1] was “blocked γ-TuSC-stimulated MT polymerization”, the IC50 ([2]; M-phase-arrested Xenopus egg extracts, 15 μM RanQ69L, 20 min at 20 °C) was 9.7 µM and the “Effect on number of RanQ69L-dependent asters” value ([2]; Xenopus egg extracts) was “without changing the number of asters”.
